Data published in publication PMC8327158, “PEGylated AdipoRon derivatives improve glucose and lipid metabolism under insulinopenic and high-fat diet conditions” (Journal of Lipid Research, 2021).

Test system: HFD-fed wild-type mice
Experiment: Sphingolipid levels in tissues and serum of HFD-fed mice by mass spectrometry
Type: in vivo, mouse
Settings: average ± SD
Method: Six-week-old wild-type male mice were fed HFD for 4 weeks or 7 months In total, 5 mg/Kg of PBS, Adiporon, AdipoRonPEG5, AdipoRonPEG6HTL were injected twice a day for 5 days. After 5 days of treatment, systemic test is performed, and serum (Before and after treatment), subcutaneous, epididymal, liver, heart samples were harvested for qPCR and sphingolipid analysis.
Flash-frozen tissue samples (~40 mg) in a borosilicate glass tube were quenched with 2.0 ml of organic extraction solvent (isopropanol: ethyl acetate, 15:85; v:v) and homogenized with a mechanical tissue disruptor. Immediately afterward, 20 μl of organic internal standard solution was added (Ceramide/Sphingoid Internal Standard Mixture II diluted 1:10 in ethanol). The mixture was vortexed for 20 s and sonicated in ultrasonic bath for 40 min at 40°C. The organic extract was allowed to reach room temperature, and 1.5 ml of HPLC water was added and a two-phase liquid-liquid extraction was performed. The upper phase was transferred to a new clean tube, and the lower aqueous phase containing the protein pellet was re-extracted with additional 2.0 ml of organic extraction solvent. The organic phases were combined and dried under nitrogen stream at 40°C. Dried extracts were stored at –80°C until analysis. For analysis of ceramides and sphingoid base species, the dried residues were reconstituted in 200 μl of methanol. Sphingomyelins required a sample dilution of 1:50 in methanol prior to analysis. Serum sphingolipids were extracted using a similar methodology requiring 25 μl of serum.
Liver, subcutaneous adipose tissue, pancreas, pancreatic islets were initially homogenized in 500 μl of cold PBS using an ultrasonic probe disruptor and keeping the sample on ice during sonication. In total, 50 μl of aqueous homogenate was aliquoted for protein determination. In total, 400 μl of the lysate was immediately quenched in 2.0 ml of organic extraction solvent.
In total, 5 μl of reconstituted samples was injected into an LC/MS/MS system for the analysis of ceramides and sphingoid bases, and 1 μl injection was required for the analysis of sphingomyelins. The system consisted of a Shimadzu LCMS-8050 triple-quadrupole mass spectrometer with the dual ion source operating in electrospray positive ionization mode. The mass spectrometer is coupled to a Shimadzu Nexera X2 UHPLC system equipped with three solvent delivery modules LC-30AD, three degassing units DGU-20A5R, an autosampler SIL-30ACMP, and a column oven CTO-20AC operating at 40°C (Shimadzu Scientific Instruments, Columbia, MD). Six sphingoid bases (d18:1 sphingosine, d18:1 sphingosine-1-phosphate, d18:1 deoxysphingosine, d18:0 sphinganine, d18:0 sphinganine-1-phosphate, d18:0 deoxysphinganine) and […] ceramide species and their metabolites (C16:0, C16:0 dihydroceramide, C16:0 glucosylceramide, C16:0 lactosylceramide, C16:0 sphingomyelin, C18:0, C18:0 dihydroceramide, C18:0 glucosylceramide, C18:0 sphingomyelin, C18:1, C20:0, C22:0, C22:0 glucosylceramide, C24:0, C24:0 dihydroceramide, C24:0 lactosylceramide, C24:0 sphingomyelin, C24:1, C24:1 dihydroceramide, C24:1 glucosylceramide, C24:1 sphingomyelin). Quantitative analysis of sphingolipids was achieved using selective reaction monitoring scan mode. Lipid separation was achieved by reverse phase LC on a 2.1 (i.d.) × 150 mm Ascentis Express C8, 2.7 micron (Supelco, Bellefonte, PA) column under gradient elution, using three different mobile phases: eluent A consisting of methanol/water/formic acid, 600/400/0.8, v/v/v with 5 mM ammonium formate, eluent B consisting of methanol/formic acid, 1,000/0.8, v/v with 5 mM ammonium formate, and eluent C consisting of CH3OH/CH2Cl2 350/650. The concentration of each metabolite was determined according to calibration curves using the peak-area ratio of analyte versus corresponding internal standard. Calibration curves were generated using serial dilutions of each target analyte.

[1] = scWAT, 5 mg/kg twice a day 5 days
[2] = serum at day 0 (before treatment)
[3] = serum at day 5, 5 mg/kg twice a day 5 days

SMILES: O=C(COc1ccc(C(=O)c2ccccc2)cc1)NC1CCN(Cc2ccccc2)CC1 [AdipoRon]
- Hexosyl 20:0 [1]: 615610.3 ± 235007.39 pg/mg
- Hexosyl 22:0 [1]: 6375434.2 ± 2782528.88 pg/mg
- Hexosyl 24:0 [1]: 21878746.0 ± 11579620.12 pg/mg
- Hexosyl 24:1 [1]: 11496554.3 ± 5647659.03 pg/mg
- Lactosyl 16:0 [1]: 45792.6 ± 45798.33 pg/mg
- Lactosyl 18:0 [1]: 0.0 ± 0.0 pg/mg
- Lactosyl 22:0 [1]: 49816.7 ± 23898.61 pg/mg
- Lactosyl 24:1 [1]: 86367.6 ± 22529.94 pg/mg
- Lactosyl C24:0 [1]: 55460.5 ± 33843.98 pg/mg
- Sphingaine1P [1]: 35443.6 ± 15686.23 pg/mg
- Sphinganine [1]: 29337.6 ± 16700.68 pg/mg
- Sphingosine [1]: 49182.2 ± 32181.22 pg/mg
- Sphingosine1P [1]: 37612.5 ± 17941.43 pg/mg
- dCer 16:0 [1]: 14580.7 ± 4393.04 pg/mg
- dCer 18:0 [1]: 17597.9 ± 5214.49 pg/mg
- dCer 20:0 [1]: 80869.1 ± 48824.3 pg/mg
- dCer 22:0 [1]: 84488 ± 14825 pg/mg
- dCer 24:0 [1]: 96632.5 ± 27938.2 pg/mg
- dCer 24:1 [1]: 93338.7 ± 29289.58 pg/mg
- Cer 14:0 [2]: 8402.0 ± 1707.95 pg/mg
- Cer 16:0 [2]: 25341.1 ± 4464.54 pg/mg
- Cer 18:0 [2]: 10061.4 ± 1406.12 pg/mg
- Cer 18:1 [2]: 0 pg/mg
- Cer 20:0 [2]: 144673.7 ± 32033.84 pg/mg
- Cer 22:0 [2]: 2303972.0 ± 309633.22 pg/mg
- Cer 24:0 [2]: 1443539.8 ± 157739.65 pg/mg
- Cer 24:1 [2]: 986691.7 ± 101968.89 pg/mg
- Cer 26:0 [2]: 10057.2 ± 2818.25 pg/mg
- Cer 26:1 [2]: 0 pg/mg
- DeoxySphinganie [2]: 0.0 ± 0.0 pg/mg
- Deoxysphingosine [2]: 0.0 ± 0.0 pg/mg
- Hexosyl 14:0 [2]: 2960.2 ± 601.74 pg/mg
- Hexosyl 16:0 [2]: 3024488.2 ± 155463.13 pg/mg
- Hexosyl 18:0 [2]: 47892.4 ± 4333.97 pg/mg
- Hexosyl 20:0 [2]: 182974.2 ± 30498.44 pg/mg
- Hexosyl 22:0 [2]: 12192915.9 ± 1475247.57 pg/mg
- Hexosyl 24:0 [2]: 1341147.2 ± 57498.17 pg/mg
- Hexosyl 24:1 [2]: 3535698.6 ± 346272.3 pg/mg
- Lactosyl 16:0 [2]: 94073.6 ± 8945.71 pg/mg
- Lactosyl 18:0 [2]: 0.0 ± 0.0 pg/mg
- Lactosyl 22:0 [2]: 60785.8 ± 9718.01 pg/mg
- Lactosyl 24:1 [2]: 85880.2 ± 22412.15 pg/mg
- Lactosyl C24:0 [2]: 103502.4 ± 17366.51 pg/mg
- Sphingaine1P [2]: 250934.3 ± 36218.42 pg/mg
- Sphinganine [2]: 45226.5 ± 8665.07 pg/mg
- Sphingosine [2]: 43193.4 ± 8183.0 pg/mg
- Sphingosine1P [2]: 774207.2 ± 25661.64 pg/mg
- dCer 16:0 [2]: 16437.5 ± 2669.42 pg/mg
- dCer 18:0 [2]: 10213.1 ± 2375.68 pg/mg
- dCer 20:0 [2]: 3716.7 ± 0.0 pg/mg
- dCer 22:0 [2]: 335078.3 ± 58715.16 pg/mg
- dCer 24:0 [2]: 212159.3 ± 42613.52 pg/mg
- dCer 24:1 [2]: 111963.9 ± 12779.64 pg/mg
- Cer 14:0 [3]: 9165.8 ± 853.97 pg/mg
- Cer 16:0 [3]: 17212.8 ± 1488.18 pg/mg
- Cer 18:0 [3]: 8049.1 ± 1033.29 pg/mg
- Cer 18:1 [3]: 0 pg/mg
- Cer 20:0 [3]: 135037.6 ± 17909.21 pg/mg
- Cer 22:0 [3]: 1736100.3 ± 185474.31 pg/mg
- Cer 24:0 [3]: 1412623.3 ± 289722.52 pg/mg
- Cer 24:1 [3]: 771667.5 ± 65564.62 pg/mg
- Cer 26:0 [3]: 11959.9 ± 2614.25 pg/mg
- Cer 26:1 [3]: 0 pg/mg
- DeoxySphinganie [3]: 0.0 ± 0.0 pg/mg
- Deoxysphingosine [3]: 0.0 ± 0.0 pg/mg
- Hexosyl 14:0 [3]: 2960.2 ± 601.74 pg/mg
- Hexosyl 16:0 [3]: 3736352.2 ± 191696.45 pg/mg
- Hexosyl 18:0 [3]: 63748.7 ± 18002.6 pg/mg
- Hexosyl 20:0 [3]: 245486.5 ± 74132.09 pg/mg
- Hexosyl 22:0 [3]: 9390882.1 ± 688490.25 pg/mg
- Hexosyl 24:0 [3]: 1430423.2 ± 157556.06 pg/mg
- Hexosyl 24:1 [3]: 3036231.9 ± 367214.43 pg/mg
- Lactosyl 16:0 [3]: 94265.2 ± 16983.56 pg/mg
- Lactosyl 18:0 [3]: 0.0 ± 0.0 pg/mg
- Lactosyl 22:0 [3]: 58253.0 ± 5503.82 pg/mg
- Lactosyl 24:1 [3]: 124049.2 ± 19300.14 pg/mg
- Lactosyl C24:0 [3]: 122340.7 ± 11760.71 pg/mg
- Sphingaine1P [3]: 423112.6 ± 48511.44 pg/mg
- Sphinganine [3]: 11725.4 ± 1939.02 pg/mg
- Sphingosine [3]: 18235.7 ± 1946.06 pg/mg
- Sphingosine1P [3]: 1139765.2 ± 69403.83 pg/mg
- dCer 16:0 [3]: 7198.9 ± 1199.82 pg/mg
- dCer 18:0 [3]: 4034.8 ± 845.83 pg/mg
- dCer 20:0 [3]: 2973.3 ± 1017.85 pg/mg
- dCer 22:0 [3]: 174957.8 ± 18878.67 pg/mg
- dCer 24:0 [3]: 105210.1 ± 6589.37 pg/mg
- dCer 24:1 [3]: 49553.1 ± 7051.68 pg/mg
